The values below are quoted from earlier work in patent US20230263777A1, “STABLE SOLID FORMULATION OF AZILSARTAN OR PHARMACEUTICALLY ACCEPTABLE SALTS THEREOF” (PIRAMAL PHARMA LIMITED, priority 2020, published 2023).

`CCOc1nc2cccc(C(=O)OCc3oc(=O)oc3C)c2n1Cc1ccc(-c2ccccc2-c2noc(=O)[nH]2)cc1` [Azilsartan kamedoxomil, (5-methyl-2-oxo-2H-1,3-dioxol-4-yl)methyl 2-ethoxy-1-({4-[2-(5-oxo-4,5-dihydro-1,2,4-oxadiazol-3-yl)phenyl]phenyl}methyl)-1H-1,3-benzodiazole-7-carboxylate]: the Solubility in methanol result (methanol) was “freely soluble”. In addition, the Solubility in water entry (water) is recorded as “practically insoluble”.
